The record followed here is patent US20220257596A1, “METHODS FOR TREATING MEIBOMIAN GLAND DYSFUNCTION WITH LIVER X RECEPTOR AGONISTS” (Novartis AG, priority 2019, published 2022).

The subject of series [1] is SZ95 (immortalized human sebaceous gland cells) cells. Briefly: Sentinel lipid assay (desaturation index in SZ95 sebocytes). Type of series: cell-based. How it is done:
SZ95 (immortalized human sebaceous gland cells) cells were seeded in Greiner bio-one 96-well polypropylene plates that were pre-treated with 50 μg/ml Human Plasma Fibronectin (Thermo Fisher Scientific) at a density of 10^4 cells/135 μl. Cells were incubated in a humidified incubator with 5% CO2 at 37° C. overnight. Test compounds were diluted at a ratio of 1:3 and added to cells at final concentrations starting from 10 μM. Compound H was used as a positive control reference compound in each plate. Cells in the assay plate were incubated in a humidified incubator with 5% CO2 at 37° C. for 72h.
Culture medium was removed from the cells and cells in culture plates were washed with ice cold phosphate buffered saline three times. Plates were heat sealed and stored in a −80° C. freezer prior to Sentinel lipid assay.
Sentinel lipid assay: The sentinel lipid assay was used quantify the change in the global desaturation index in SZ95 sebocytes upon administration of LXR agonist compounds. The assay measures a smaller subset of lipid analytes in […] (termed “sentinel lipids”) which would model the global changes the population of both saturated and desaturated lipids in the cells. In order to define this smaller subset of lipids, a complete lipid profile was recorded on dose response curves (eight levels from 4 nM to 10 uM) of Compounds A-N. An elastic net regression model was applied separately to both the saturated and desaturated lipids to determine the minimum combination of coefficients and analytes which could be used to adequately model the total population of lipids. The elastic net model was able to reduce the behavior of 425 lipids to 11 lipids and the correlation between the desaturation indices observed using the complete set of lipids with from the 11 sentinel lipids was 0.96.
A medium throughput assay was created using this reduced set of sentinel lipids. A single batch is defined as triplicate examples of three unique plates (i.e., a single batch of cells is used to create nine plates for LC-MSMS analysis). Lipids were extracted from the cells using a 1:1 mixture of methylene chloride/methanol containing 10 nM of deuterated standards of triglycerides, which are used as internal standards for quantitating the lipid abundance. The lipids were separated prior to mass spectrometric analysis using a five minute HPLC gradient. The abundance of the sentinel lipids and the internal standards are measured using multiple reaction monitor mode (MRM) on a triple quadrupole mass spectrometer. The data was transformed from total ion current to nmoles/10^6 cells, which are multiplied by the coefficients from the elastic net model to determine the effective desaturated and saturated content, and therein the desaturation index of the dosed cells. In order to compare compounds from multiple batches with one another, the measure raw desaturation index was normalized by dividing it by the desaturation index of the DMSO dosed cells, and all data was assessed as the fraction by which the compound increases the desaturation index above 1. The Amax value refers to the percent […] of the tested compound compared to the reference compound.

Series [2] has as its system SCD1 protein production in SZ95-SCD1-HiBit cells. Description: Measurement of SCD1 expression in SZ95-SCD1-HiBit cells (HiBiT assay). Type of series: cell-based. The following applies: Homo sapiens. How it is done:
SZ95-SCD1-HiBit cells were seeded in 384-well cell culture white plates at a density of 3000 cells/30 ul. Water is added to edge wells to avoid evaporation. Cells were incubated in a humidified incubator with 5% CO2 at 37° C. overnight. Tested compounds were diluted at a ratio of 1:3 using Agilent BRAVO Automated Liquid Handling Platform and added to cells at final concentrations starting from 18 μM. Compound H was used as a reference compound in each plate. Cells in the assay plate were incubated in a humidified incubator with 5% CO2 at 37° C. for 48h.
The assay plates were removed from the incubator and allowed to equilibrate to room temperature. Nano-Glo® HiBiT Detection Reagent (Promega; a mixture of Nano-Glo HiBiT Detection Buffer, Nano-Glo HiBiT Detection Substrate, and LgBiT protein) was added into assay plates, at a volume equal to cell culture medium in each well. Plates were placed on an orbital shaker at a speed of 300-600 rpm for 10 min at room temperature, and read on an EnVision Plate Reader using luminescence detection with a 1 second read time.
The assay measures the increase in SCD1 protein production in vitro. Amax refers to the percent […] of the tested compound compared to the reference compound.

Series [3] in a line: Eyelid pharmacokinetics: compound concentration in rabbit meibomian gland. It is filed as in vivo. How it is done:
A formulation of 1% Compound G as a suspension in a suitable vehicle was administered to rabbits as follows. Animals were sedated and the eyelashes and hair on both eyes on both lids trimmed as short as possible. Thirty microliters of the 1% Compound G was drawn up into a pipette and carefully pipetted around the entire eyelid of the animal a few millimeters back from the edge of the lid so as to prevent the material from leaking onto the eye itself. Following application, a cotton swab or eye spear was used to gently try and massage the material into the skin. At the appropriate time points, the animals were euthanized and meibomian glands removed and the concentration of the compound in meibomian glands was measured. The experiment was conducted in triplicate and the results below illustrate mean concentration in nM.

Each structure is given as a SMILES string.

`CCOC(=O)Cn1nc(C(F)(F)F)cc1-c1ccc(-c2cccc(S(C)(=O)=O)c2)cc1` [Compound G, ethyl 2-(5-(3′-(methylsulfonyl)-[1,1′-biphenyl]-4-yl)-3-(trifluoromethyl)-1H-pyrazol-1-yl)acetate]: the EC50 is 243 nM in series [1] (SZ95 cells, 72h incubation, top concentration 10 μM, desaturation index, read-out: SLA EC50) and 111 nM in series [2] (SZ95-SCD1-HiBit cells, 48h incubation, top concentration 18 μM). The Emax in series [1] (percent compared to the reference compound (Compound H), 72h, read-out: SLA Amax) worked out at 98.8%; in series [2] (percent compared to the reference compound (Compound H), 48h, read-out: HiBit Amax), 70.7%. In addition, in series [3] (1% suspension on eyelid, in words), the “Uptake into the meibomian gland” value is on record as “sustained for at least six hours”. Further, the concentration at 0.5 h in series [3] (meibomian gland, topical, 0.5 h, 30 microliters of 1% suspension applied to eyelid, triplicate) stood at 2630 nM. Moreover, in series [3] (meibomian gland, topical, 3 h, 30 microliters of 1% suspension applied to eyelid, triplicate), the concentration at 3 h is 3780 nM. The concentration at 6 h in series [3] (meibomian gland, topical, 6 h, 30 microliters of 1% suspension applied to eyelid, triplicate) turned out to be 1050 nM.

In general, EC50 refers to the midpoint of the concentration-response curve.
